Assay results: patent publication US20250282757A1, “ARYL ETHER-SUBSTITUTED HETEROCYCLIC COMPOUNDS AS GLP1R AGONISTS” (MINDRANK AI LTD., priority 2021, published 2025)

What was measured:
GLP-1R = GLP-1R (Homo sapiens, UniProt P43220); assay: Agonist activity on GLP-1R, HTRF cAMP detection in stably transfected GLP-1R/HEK293 cells; format: cell-based; conditions: for EC50: 30 min incubation; for Max activity: relative to top concentration of reference GLP-1(7-37)
[1] = Pharmacokinetic study in monkeys; format: in vivo, cynomolgus monkeys; conditions: for half-life: read-out: T½ (converted)
Procedure: The pharmacokinetic properties of compounds of the present invention were evaluated in monkey pharmacokinetic experiments with 3 male Non-naive cynomolgus monkeys per group. Compounds were dissolved in 10% solutol/90% saline. For single intravenous administration, the dose was 1 mg/kg, and the administration volume was 1 mL/kg. For single intragastric administration, the dose was 5 mg/kg, and the administration volume was 1 mL/kg. Animals were fasted overnight with free water before the experiment and resumed feeding 4 hours after administration. Blood was collected at 0.0830, 0.25, 0.5, 1, 2, 4, 6, 8 and 24 hours after dosing. About 0.4 mL of whole blood was collected from the animal's forearm vein and placed in an EDTA-K2 anticoagulant tube. The samples were centrifuged at 4° C. and 4200 rpm for 5 min, and the plasma was transferred to a centrifuge tube and stored at −80° C. until analysis. For plasma sample analysis, the test compounds and internal standards (Labetalol & tolbutamide & Verapamil & dexamethasone & glyburide & Celecoxib) were extracted from monkey plasma by protein precipitation method with acetonitrile, and the extracts were analyzed by LC/MS/MS. Measured plasma concentration-time data in individual animals were analyzed using the non-compartmental model of Phoenix WinNonlin 7.0 (Pharsight, USA) software to obtain the following pharmacokinetic parameters: maximum (peak) plasma drug concentration Cmax; time to peak Tmax; Half-life T1/2 and area under the plasma concentration-time curve extrapolated to infinity AUC0-inf.

cynomolgus monkeys = assay: Intravenous glucose tolerance (IVGTT) experiment in cynomolgus monkey; format: in vivo
Procedure: The compounds were dissolved in 10% Solutol HS15+90% Saline by vortex ultrasound. Vehicle was 10% Solutol HS15+90% Saline.
Male cynomolgus monkeys, 10-15 years old, weighing 6-13 kg. Healthy animals were selected for efficacy studies according to alanine aminotransferase (ALT), aspartate aminotransferase (AST), triglyceride (TG), total cholesterol (TC), high density lipoprotein (HDL), low density lipoprotein (LDL), glycosylated hemoglobin (HbA1c), body weight (BW).
After 1 week of acclimation, the IVGTT baseline before administration was measured, and the animals were grouped according to the insulin and blood glucose results of the IVGTT. The detailed information of treatment was as follows:
IVGTT was started after 2 hours post of compound dosing. Blood were collected-at −15 min, 0 min (before sugar administration), and 2, 5, 7, 10, 20, and 30 min after sugar administration. And the blood glucose level were measured.
Data was analyzed by Graphpad Prism 6 and the statistical method was one-way ANOVA Dunnett's test. Compared with the vehicle group, p<0.05 was considered significant difference. * means p<0.05, ** means p<0.01, *** means p<0.001.

[2] = Pharmacokinetic study in mice; format: in vivo, CD-1 mice; conditions: for clearance rate compared with PF-06882961 / exposure compared with PF-06882961: mice; for half-life: read-out: T½ (converted); for Vd: read-out: Vdss
Procedure: The pharmacokinetic properties of some compounds of the present invention were evaluated in mice pharmacokinetic experiments. SPF male CD-1 mice from Beijing Vital River Laboratory Animal Technology Co., Ltd were used with 6 mice in each group. Compounds were dissolved in 10% solutol/90% saline. A single intravenous administration was given at a dose of 1 mg/kg in a volume of 1 mL/kg. A single intragastric administration was given at a dose of 5 mg/kg in a volume of 1 mL/kg. Animals were fasted overnight prior to the administration and resumed feeding 4 hours after administration, ad libitum to water. Blood was collected at 0.0830, 0.25, 0.5, 1, 2, 4, 6, 8 and 24 hours after dosing. About […] of whole blood was collected from the saphenous vein of animals and placed in an EDTA-K2 anticoagulation tube. The samples were centrifuged at 4° C. and 4200 rpm for 5 min, and the plasma was transferred into a centrifuge tube and stored at −80° C. until analysis. For plasma sample analysis, the test compounds and internal standards (Labetalol & tolbutamide & Verapamil & dexamethasone & glyburide & Celecoxib) were extracted from mice plasma by protein precipitation method with acetonitrile, and the extracts were analyzed by LC/MS/MS. The measured plasma concentration-time data of individual animals were analyzed with the non-compartmental model of Phoenix WinNonlin 7.0 (Pharsight, USA) software, and the pharmacokinetic parameters of mice were obtained as follows: maximum (peak) plasma drug concentration Cmax; Peak time Tmax; half-life T1/2 and area under the plasma concentration-time curve extrapolated to infinity AUC0-inf.

[3] = cynomolgus monkey, plasma, male cynomolgus monkeys, 1 mg/kg iv
[4] = male cynomolgus monkeys, 5 mg/kg po
[5] = single oral dose of 100 mg/kg, IVGTT 2 hours after dosing
[6] = mouse, plasma, male CD-1 mice, 1 mg/kg iv
[7] = mouse, plasma, male CD-1 mice, 1 mg/kg iv, read-out: AUC0-inf
[8] = mouse, plasma, male CD-1 mice, 5 mg/kg po, read-out: AUC0-inf
[9] = mouse, plasma, male CD-1 mice, 5 mg/kg po, read-out: Cmax
[10] = mouse, plasma, male CD-1 mice, 5 mg/kg po
[11] = male cynomolgus monkeys, 1 mg/kg iv

Chain of GLP-1R (P43220 24-463): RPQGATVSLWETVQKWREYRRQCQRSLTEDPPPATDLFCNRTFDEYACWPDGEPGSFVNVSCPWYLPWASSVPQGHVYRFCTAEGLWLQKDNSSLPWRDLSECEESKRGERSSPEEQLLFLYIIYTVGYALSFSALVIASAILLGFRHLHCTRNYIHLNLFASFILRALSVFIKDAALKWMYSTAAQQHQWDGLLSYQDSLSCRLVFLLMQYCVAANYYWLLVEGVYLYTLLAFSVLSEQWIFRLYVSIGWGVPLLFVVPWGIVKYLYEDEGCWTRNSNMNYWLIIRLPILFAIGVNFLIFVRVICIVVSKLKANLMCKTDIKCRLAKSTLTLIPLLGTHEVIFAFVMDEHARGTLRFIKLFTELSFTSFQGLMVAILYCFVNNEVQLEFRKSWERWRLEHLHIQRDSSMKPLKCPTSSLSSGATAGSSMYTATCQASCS

SMILES | EC50 (GLP-1R) | Max activity (GLP-1R) | F ([2]; male CD-1 mice, 5 mg/kg po) | clearance rate compared with PF-06882961 [2] | exposure compared with PF-06882961 [2] | clearance [2, 6] | AUC(0-inf) [2, 7] | half-life [2, 6] | Vd [2, 6] | AUC(0-inf) [2, 8] | Cmax [2, 9] | half-life [2, 10] | also measured
O=C(O)c1ccc2nc(CN3CCC(Oc4cccc(COc5ccc(Cl)cc5F)n4)CC3)n(C[C@@H]3CCO3)c2c1 [Compound 49, (S)-2-((4-((6-((4-chloro-2-fluorophenoxy)methyl)pyridin-2-yl)oxy)piperidin-1-yl)methyl)-1-(oxetan-2-ylmethyl)-1H-benzo[d]imidazole-6-carboxylic acid] | 0.193 nM | 129.3% | 20.7% | lower clearance rates | higher exposure | 12 mL/min/kg | 1350 ng·h/mL | 1 h | 1 L/kg | 1760 ng·h/mL | 515 ng/mL | 3.2 h | clearance [1, 3]: 7.26 mL/min/kg; AUC(0-inf) ([1]; cynomolgus monkey, plasma, male cynomolgus monkeys, 1 mg/kg iv, read-out: AUC0-inf): 2380 ng·h/mL; half-life [1, 3]: 1.34 h; Vd ([1]; cynomolgus monkey, plasma, male cynomolgus monkeys, 1 mg/kg iv, read-out: Vdss): 0.29 L/kg; AUC(0-inf) ([1]; cynomolgus monkey, plasma, male cynomolgus monkeys, 5 mg/kg po, read-out: AUC0-inf): 1240 ng·h/mL; Cmax ([1]; cynomolgus monkey, plasma, male cynomolgus monkeys, 5 mg/kg po, read-out: Cmax): 235 ng/mL; half-life ([1]; cynomolgus monkey, plasma, male cynomolgus monkeys, 5 mg/kg po): 4.01 h; F [1, 4]: 10.4%; clearance rate compared with PF-06882961 ([1]; monkeys): lower clearance rates; exposure compared with PF-06882961 ([1]; monkeys): higher exposure; half-life compared with PF-06882961 ([1]; monkeys): greater; blood glucose level in IVGTT (cynomolgus monkeys; 60 mg/kg po dose group): significant hypoglycemic effect; effect on blood glucose compared with PF-06882961 (cynomolgus monkeys; 100 mg/kg po, IVGTT): slightly more effective; blood glucose level in IVGTT (cynomolgus monkeys; [5]): significantly lower the blood glucose level
N#Cc1ccc(OCc2cccc(OC3CCN(Cc4nc5c(F)cc(C(=O)O)cc5n4C[C@@H]4CCO4)CC3)n2)c(F)c1 [Compound 56, (S)-2-((4-((6-((4-cyano-2-fluorophenoxy)methyl)pyridin-2-yl)oxy)piperidin-1-yl)methyl)-4-fluoro-1-(oxetan-2-ylmethyl)-1H-benzo[d]imidazole-6-carboxylic acid] | 0.21 nM | 124.9% | 54.4% | lower clearance rates | higher exposure | 21.7 mL/min/kg | 771 ng·h/mL | 2.3 h | 1.2 L/kg | 2100 ng·h/mL | 1640 ng/mL | 1 h | 
N#CCC1(Cn2c(CN3CCC(Oc4cccc(COc5ccc(C#N)cc5F)n4)CC3)nc3c(F)cc(C(=O)O)cc32)CC1 [Compound 134, 2-((4-((6-((4-cyano-2-fluorophenoxy)methyl)pyridin-2-yl)oxy)piperidin-1-yl)methyl)-1-((1-(cyanomethyl)cyclopropyl)methyl)-4-fluoro-1H-benzimidazole-6-carboxylic acid] | 0.133 nM | 117.3% |  |  |  |  |  |  |  |  |  |  | 
CCn1cncc1Cn1c(CN2CCC(Oc3cccc(COc4ccc(Cl)cc4F)c3)CC2)nc2ccc(C(=O)O)cc21 [Compound 7, 2-((4-(3-((4-chloro-2-fluorophenoxy)methyl)phenoxy)piperidin-1-yl)methyl)-1-((1-ethyl-1H-imidazol-5-yl)methyl)-1H-benzo[d]imidazole-6-carboxylic acid] | 0.145 nM | 91.3% |  |  |  |  |  |  |  |  |  |  | 

More lines, main results first:

EC50 (GLP-1R) | Max activity (GLP-1R) | F ([2]; male CD-1 mice, 5 mg/kg po) | clearance rate compared with PF-06882961 [2] | exposure compared with PF-06882961 [2] | clearance [2, 6] | AUC(0-inf) [2, 7] | half-life [2, 6] | Vd [2, 6] | AUC(0-inf) [2, 8] | Cmax [2, 9] | half-life [2, 10] | SMILES | also measured
 |  | 19.8% |  |  |  |  |  |  |  |  |  | N#Cc1ccc(COc2cccc(C3CCN(Cc4nc5ccc(C(=O)O)cc5n4C[C@@H]4CCO4)CC3)n2)c(F)c1 [PF-06882961, reference compound] | AUC(0-inf) [1, 11]: 1167 ng·h/mL; Cl [1, 11]: 14.4 mL/min/kg; T½ [1, 11]: 1.1 h; Vdss [1, 11]: 0.3 L/kg; AUC(0-inf) [1, 4]: 344 ng·h/mL; Cmax [1, 4]: 58.8 ng/mL; F [1, 4]: 5.9%; T½ [1, 4]: 2.8 h; blood glucose level in IVGTT (cynomolgus monkeys; [5]): significantly lower the blood glucose level; AUC(0-inf) ([2]; male CD-1 mice, 1 mg/kg iv): 370 ng·h/mL; Cl ([2]; male CD-1 mice, 1 mg/kg iv): 45.1 mL/min/kg; T½ ([2]; male CD-1 mice, 1 mg/kg iv): 0.3 h; Vdss ([2]; male CD-1 mice, 1 mg/kg iv): 1 L/kg; AUC(0-inf) ([2]; male CD-1 mice, 5 mg/kg po): 366 ng·h/mL; Cmax ([2]; male CD-1 mice, 5 mg/kg po): 299 ng/mL; T½ ([2]; male CD-1 mice, 5 mg/kg po): 2.0 h
0.249 nM | 109.1% | 45.1% | lower clearance rates | higher exposure | 15 mL/min/kg | 1140 ng·h/mL | 1 h | 1 L/kg | 2580 ng·h/mL | 2190 ng/mL | 1.4 h | O=C(O)c1cc(F)c2nc(CN3CCC(Oc4cccc(COc5ccc(Cl)cc5F)n4)CC3)n(C[C@@H]3CCO3)c2c1 [Compound C23, (S)-2-((4-((6-((4-chloro-2-fluorophenoxy)methyl)pyridin-2-yl)oxy)piperidin-1-yl)methyl)-4-fluoro-1-(oxetan-2-ylmethyl)-1H-benzo[d]imidazole-6-carboxylic acid] | 
0.668 nM | 127.7% |  |  |  |  |  |  |  |  |  |  | CCn1cncc1Cn1c(CN2CCC(Nc3cccc(COc4ccc(C#N)cc4F)n3)CC2)nc2ccc(C(=O)O)cc21 [Compound C17, 2-((4-((6-((4-cyano-2-fluorophenoxy)methyl)pyridin-2-yl)amino)piperidin-1-yl)methyl)-1-((1-ethyl-1H-imidazol-5-yl)methyl)-1H-benzo[d]imidazole-6-carboxylic acid] | 
8.03 nM |  |  |  |  |  |  |  |  |  |  |  | N#Cc1ccc(OCc2cccc(Oc3ccc(Cc4nc5ccc(C(=O)O)cc5n4C[C@@H]4CCO4)cc3)n2)c(F)c1 [Compound C27, (S)-2-(4-((6-((4-cyano-2-fluorophenoxy)methyl)pyridin-2-yl)oxy)benzyl)-1-(oxetan-2-ylmethyl)-1H-benzo[d]imidazole-6-carboxylic acid] | 
0.233 nM | 125.5% |  |  |  |  |  |  |  |  |  |  | CCn1cncc1Cn1c(CN2CCC(Oc3cccc(CSc4ccc(C#N)cc4F)n3)CC2)nc2ccc(C(=O)O)cc21 [Compound C12, 2-((4-((6-(((4-cyano-2-fluorophenyl)thio)methyl)pyridin-2-yl)oxy)piperidin-1-yl)methyl)-1-((1-ethyl-1H-imidazol-5-yl)methyl)-1H-benzo[d]imidazole-6-carboxylic acid] | 
